{
  "source": "the supplement of paper PMC10307832",
  "compound": "Cc1cnc(Nc2ccc(OCCN3CCCC3)cc2)nc1Nc1cccc(S(=O)(=O)NC(C)(C)C)c1 [Fedratinib] + O=C(CCCCCCC(=O)Nc1ccccc1)NO [Vorinostat] (partner 1 µM)",
  "test": "relative viability (nuclei count vs DMSO), 5 days (fraction); higher = more cells survive",
  "in_short": "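A single step with final 0.05% Triton X-100, 1% formaldehyde and 1 ug/ml Hoechst fixed the cells and stained nuclei 5 days after treatment. Lung cancer cell lines in 1536-well plates had been treated by pin tool the day after seeding with one drug alone or a fixed anchor-drug dose plus five library-drug doses (not always all listed) in √10 steps, and nuclei were counted on 4× images. Relative viability is the ratio of nuclei in treated wells to nuclei in vehicle wells, taken as the median of duplicate plates.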",
  "data": [
    {"cell line": "UMC-11", "values": [
      {"measurement": "relative viability", "setting": "first compound 0.1 µM", "value": 0.377},
      {"measurement": "relative viability", "setting": "first compound 0.3162 µM", "value": 0.357},
      {"measurement": "relative viability", "setting": "first compound 1 µM", "value": 0.241}
    ]}
  ]
}
